Calls of active or inactive are those of the source. The calls are words filed in the database; no cut-off is given here.
Key:
[1] = Half life in Sprague-Dawley rat at […], iv by LC-MS/MS analysis; format: ADME, organism-based; settings: in vivo
[2] = Tmax in Sprague-Dawley rat at 5 mg/kg, po by LC-MS/MS analysis; format: ADME, organism-based; settings: in vivo
[3] = Cmax in Sprague-Dawley rat at 5 mg/kg, po by LC-MS/MS analysis; format: ADME, organism-based; set-up: dose 5 mg/kg, route oral; settings: in vivo
[4] = Cmax in Sprague-Dawley rat at […], iv by LC-MS/MS analysis; format: ADME, organism-based; set-up: dose 2.5 mg/kg, route intravenous; settings: in vivo
[5] = AUC (0 to infinity) in Sprague-Dawley rat at 5 mg/kg, po by LC-MS/MS analysis; format: ADME, organism-based; set-up: dose 5 mg/kg, time infinity, route oral; settings: in vivo
[6] = MRT (0 to t) in Sprague-Dawley rat at 5 mg/kg, po by LC-MS/MS analysis; format: ADME, organism-based; settings: in vivo
[7] = Oral bioavailability in Sprague-Dawley rat at 5 mg/kg by LC-MS/MS analysis; format: ADME, organism-based; settings: in vivo
[8] = target: Dual specificity calcium/calmodulin-dependent 3',5'-cyclic nucleotide phosphodiesterase 1B (Homo sapiens, UniProt Q01064); assay: Inhibition of PDE1B (10 to 487 residues) (unknown origin) expressed in Escherichia coli BL21(DE3) using [3H]cAMP or [3H]cGMP as substrate after 15 mins by liquid scintillation counting method
[9] = target: cGMP-inhibited 3',5'-cyclic phosphodiesterase 3A (Homo sapiens, UniProt Q14432); assay: Inhibition of PDE3A (679 to 1087 residues) (unknown origin) expressed in Escherichia coli BL21(DE3) using [3H]cAMP or [3H]cGMP as substrate after 15 mins by liquid scintillation counting method
[10] = target: 3',5'-cyclic-AMP phosphodiesterase 4D (Homo sapiens, UniProt Q08499); assay: Inhibition of PDE4D2 (86 to 413 residues) (unknown origin) expressed in Escherichia coli BL21(DE3) using [3H]cAMP or [3H]cGMP as substrate after 15 mins by liquid scintillation counting method
[11] = target: Rod cGMP-specific 3',5'-cyclic phosphodiesterase subunit alpha (Homo sapiens, UniProt P16499); assay: Inhibition of PDE6A (484 to 817 residues) (unknown origin) expressed in Escherichia coli BL21(DE3) using [3H]cGMP or [3H]cAMP as substrate after 15 mins by liquid scintillation counting method
[12] = Half life in rat liver microsomes at 0.5 uM; format: ADME, microsome
[13] = Half life in human microsomes at 0.5 uM; format: ADME, microsome; settings: liver microsomes
Liver [14] = assay: Intrinsic clearance in rat liver microsomes at 0.5 uM; format: ADME, microsome
Liver [15] = assay: Intrinsic clearance in human liver microsomes at 0.5 uM; format: ADME, microsome
[16] = Apparent clearance in rat liver microsomes at 0.5 uM; format: ADME, microsome; settings: read-out: CLH(app)
[17] = Hepatic clearance in rat liver microsomes at 0.5 uM; format: ADME, microsome
Cytochrome P450 1A2 = target: T1, Cytochrome P450 1A2 (Homo sapiens, UniProt P05177); assay: Inhibition of CYP1A2 in human microsomes in presence of NADPH; format: ADME
T1 sequence (P05177 whole entry): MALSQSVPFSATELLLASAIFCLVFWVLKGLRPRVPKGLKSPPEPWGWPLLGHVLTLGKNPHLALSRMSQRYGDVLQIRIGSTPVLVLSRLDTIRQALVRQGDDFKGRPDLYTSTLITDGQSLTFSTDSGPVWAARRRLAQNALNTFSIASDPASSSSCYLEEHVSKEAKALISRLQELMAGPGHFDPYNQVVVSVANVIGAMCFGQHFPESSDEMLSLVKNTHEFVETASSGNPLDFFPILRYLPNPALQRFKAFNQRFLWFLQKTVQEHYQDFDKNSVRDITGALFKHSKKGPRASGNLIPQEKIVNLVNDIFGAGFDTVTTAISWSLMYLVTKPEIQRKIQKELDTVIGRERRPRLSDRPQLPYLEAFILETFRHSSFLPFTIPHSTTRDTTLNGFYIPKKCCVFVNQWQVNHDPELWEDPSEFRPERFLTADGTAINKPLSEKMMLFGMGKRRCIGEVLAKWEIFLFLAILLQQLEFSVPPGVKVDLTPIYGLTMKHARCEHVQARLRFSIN

Cytochrome P450 2C8 = target: T2, Cytochrome P450 2C8 (Homo sapiens, UniProt P10632); assay: Inhibition of CYP2C8 in human microsomes in presence of NADPH; format: ADME
T2 sequence (P10632 whole entry): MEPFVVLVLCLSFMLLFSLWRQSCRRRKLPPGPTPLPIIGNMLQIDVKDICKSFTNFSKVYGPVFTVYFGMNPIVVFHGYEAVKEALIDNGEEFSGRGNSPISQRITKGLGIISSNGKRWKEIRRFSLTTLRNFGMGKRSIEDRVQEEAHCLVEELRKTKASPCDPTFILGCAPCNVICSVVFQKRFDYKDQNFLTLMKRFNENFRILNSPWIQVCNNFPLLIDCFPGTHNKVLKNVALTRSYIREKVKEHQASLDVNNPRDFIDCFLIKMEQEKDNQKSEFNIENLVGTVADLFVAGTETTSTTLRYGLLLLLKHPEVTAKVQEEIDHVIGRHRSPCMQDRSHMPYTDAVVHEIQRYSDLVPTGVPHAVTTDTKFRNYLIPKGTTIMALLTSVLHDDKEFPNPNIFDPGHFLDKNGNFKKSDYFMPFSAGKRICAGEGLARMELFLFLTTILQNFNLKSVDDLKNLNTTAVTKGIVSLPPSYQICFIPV

Cytochrome P450 2C9 = Cytochrome P450 2C9 (Homo sapiens, UniProt P11712); assay: Inhibition of CYP2C9 in human microsomes in presence of NADPH; format: ADME
Cytochrome P450 2D6 = Cytochrome P450 2D6 (Homo sapiens, UniProt P10635); assay: Inhibition of CYP2D6 in human microsomes in presence of NADPH; format: ADME
[18] = Acute toxicity in Kunming mouse administered as single oral dose measured up to 2 weeks post dose; settings: in vivo
Mus musculus [19] = assay: Acute toxicity in Kunming mouse assessed as poisoning symptoms at 1000 to 1500 mg/kg, po administered as single dose measured up to 2 weeks post dose; format: organism-based; settings: in vivo, 336 h
Mus musculus [20] = assay: Acute toxicity in Kunming mouse assessed as mortality at 1000 to 1500 mg/kg, po administered as single dose measured up to 2 weeks post dose; format: organism-based; settings: in vivo, 336 h
Mus musculus [21] = assay: Acute toxicity in Kunming mouse assessed as effect on food consumption at 1000 to 1500 mg/kg, po administered as single dose measured up to 2 weeks post dose; format: organism-based; settings: in vivo, 336 h
Rattus norvegicus [22] = assay: Toxicity in Sprague-Dawley rat assessed as effect on body weight up to 300 mg/kg, po daily for 2 weeks; format: organism-based; settings: in vivo, 336 h
Rattus norvegicus [23] = assay: Toxicity in Sprague-Dawley rat assessed as overt toxicity up to 300 mg/kg, po daily for 2 weeks; format: organism-based; settings: in vivo, 336 h
Rattus norvegicus [24] = assay: Reduction in MCT-induced increase in right ventricle hypertrophy index in Wistar rat model of monocrotaline pulmonary arterial hypertension at 5 mg/kg, po for 3 weeks; format: functional, organism-based
Rattus norvegicus [25] = assay: Inhibition of hypertrophic response in Wistar rat model of monocrotaline pulmonary arterial hypertension assessed as reduction of MCT-induced increase in small pulmonary artery wall thickness at 5 mg/kg, po for 3 weeks; format: functional, organism-based
Liver [26] = assay: Drug metabolism in rat liver microsomes assessed as metabolic rate; format: ADME, microsome

Chain of Dual specificity calcium/calmodulin-dependent 3',5'-cyclic nucleotide phosphodiesterase 1B (Q01064 whole entry, the tested form may be a part): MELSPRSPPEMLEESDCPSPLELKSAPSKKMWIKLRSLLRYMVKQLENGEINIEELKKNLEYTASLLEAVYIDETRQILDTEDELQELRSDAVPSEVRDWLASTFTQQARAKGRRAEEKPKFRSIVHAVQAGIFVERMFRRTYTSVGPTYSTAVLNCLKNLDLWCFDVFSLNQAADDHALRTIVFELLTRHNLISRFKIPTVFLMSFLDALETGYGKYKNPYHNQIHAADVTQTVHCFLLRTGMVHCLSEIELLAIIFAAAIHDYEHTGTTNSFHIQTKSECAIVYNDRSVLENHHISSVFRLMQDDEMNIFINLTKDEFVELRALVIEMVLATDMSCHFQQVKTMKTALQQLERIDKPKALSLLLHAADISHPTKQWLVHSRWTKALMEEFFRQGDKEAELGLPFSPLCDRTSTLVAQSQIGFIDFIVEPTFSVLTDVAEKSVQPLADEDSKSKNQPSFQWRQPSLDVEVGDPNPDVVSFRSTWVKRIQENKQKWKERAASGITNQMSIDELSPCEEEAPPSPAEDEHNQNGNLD
Chain of Cytochrome P450 2D6 (P10635 whole entry): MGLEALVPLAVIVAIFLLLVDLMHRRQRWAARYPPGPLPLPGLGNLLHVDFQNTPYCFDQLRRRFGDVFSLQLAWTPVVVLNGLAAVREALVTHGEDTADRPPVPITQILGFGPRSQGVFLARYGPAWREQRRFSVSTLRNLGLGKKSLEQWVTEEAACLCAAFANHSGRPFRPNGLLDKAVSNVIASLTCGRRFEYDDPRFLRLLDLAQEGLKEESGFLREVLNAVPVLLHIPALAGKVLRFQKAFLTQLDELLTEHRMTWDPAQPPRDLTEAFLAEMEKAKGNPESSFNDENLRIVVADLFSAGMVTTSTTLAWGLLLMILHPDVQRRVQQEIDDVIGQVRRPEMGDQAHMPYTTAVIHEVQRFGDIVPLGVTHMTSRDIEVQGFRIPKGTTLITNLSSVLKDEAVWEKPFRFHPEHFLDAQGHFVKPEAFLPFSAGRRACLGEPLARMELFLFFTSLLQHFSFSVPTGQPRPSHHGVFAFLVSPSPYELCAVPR
Chain of Rod cGMP-specific 3',5'-cyclic phosphodiesterase subunit alpha (P16499 whole entry, the tested form may be a part): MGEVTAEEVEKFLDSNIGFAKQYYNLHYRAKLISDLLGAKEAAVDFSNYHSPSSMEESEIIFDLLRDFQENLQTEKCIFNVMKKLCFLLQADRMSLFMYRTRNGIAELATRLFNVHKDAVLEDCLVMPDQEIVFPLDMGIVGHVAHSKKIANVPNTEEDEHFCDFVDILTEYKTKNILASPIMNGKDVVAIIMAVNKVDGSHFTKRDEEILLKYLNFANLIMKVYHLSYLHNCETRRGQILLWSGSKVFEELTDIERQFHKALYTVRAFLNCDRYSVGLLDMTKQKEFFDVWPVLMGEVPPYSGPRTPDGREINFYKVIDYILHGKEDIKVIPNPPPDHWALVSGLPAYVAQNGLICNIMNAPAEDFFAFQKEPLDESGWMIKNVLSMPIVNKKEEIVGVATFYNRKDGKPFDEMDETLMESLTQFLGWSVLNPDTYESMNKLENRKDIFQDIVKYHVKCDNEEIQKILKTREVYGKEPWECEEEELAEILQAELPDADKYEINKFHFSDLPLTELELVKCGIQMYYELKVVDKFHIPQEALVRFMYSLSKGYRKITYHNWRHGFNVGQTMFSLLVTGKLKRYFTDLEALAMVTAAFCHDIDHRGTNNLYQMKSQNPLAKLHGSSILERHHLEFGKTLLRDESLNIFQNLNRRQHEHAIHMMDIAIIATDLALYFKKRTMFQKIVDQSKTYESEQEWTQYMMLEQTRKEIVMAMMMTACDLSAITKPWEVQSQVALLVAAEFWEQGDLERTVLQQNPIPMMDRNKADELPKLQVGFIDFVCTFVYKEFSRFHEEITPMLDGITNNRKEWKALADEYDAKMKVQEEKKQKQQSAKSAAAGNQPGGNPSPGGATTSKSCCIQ
Chain of cGMP-inhibited 3',5'-cyclic phosphodiesterase 3A (Q14432 whole entry, the tested form may be a part): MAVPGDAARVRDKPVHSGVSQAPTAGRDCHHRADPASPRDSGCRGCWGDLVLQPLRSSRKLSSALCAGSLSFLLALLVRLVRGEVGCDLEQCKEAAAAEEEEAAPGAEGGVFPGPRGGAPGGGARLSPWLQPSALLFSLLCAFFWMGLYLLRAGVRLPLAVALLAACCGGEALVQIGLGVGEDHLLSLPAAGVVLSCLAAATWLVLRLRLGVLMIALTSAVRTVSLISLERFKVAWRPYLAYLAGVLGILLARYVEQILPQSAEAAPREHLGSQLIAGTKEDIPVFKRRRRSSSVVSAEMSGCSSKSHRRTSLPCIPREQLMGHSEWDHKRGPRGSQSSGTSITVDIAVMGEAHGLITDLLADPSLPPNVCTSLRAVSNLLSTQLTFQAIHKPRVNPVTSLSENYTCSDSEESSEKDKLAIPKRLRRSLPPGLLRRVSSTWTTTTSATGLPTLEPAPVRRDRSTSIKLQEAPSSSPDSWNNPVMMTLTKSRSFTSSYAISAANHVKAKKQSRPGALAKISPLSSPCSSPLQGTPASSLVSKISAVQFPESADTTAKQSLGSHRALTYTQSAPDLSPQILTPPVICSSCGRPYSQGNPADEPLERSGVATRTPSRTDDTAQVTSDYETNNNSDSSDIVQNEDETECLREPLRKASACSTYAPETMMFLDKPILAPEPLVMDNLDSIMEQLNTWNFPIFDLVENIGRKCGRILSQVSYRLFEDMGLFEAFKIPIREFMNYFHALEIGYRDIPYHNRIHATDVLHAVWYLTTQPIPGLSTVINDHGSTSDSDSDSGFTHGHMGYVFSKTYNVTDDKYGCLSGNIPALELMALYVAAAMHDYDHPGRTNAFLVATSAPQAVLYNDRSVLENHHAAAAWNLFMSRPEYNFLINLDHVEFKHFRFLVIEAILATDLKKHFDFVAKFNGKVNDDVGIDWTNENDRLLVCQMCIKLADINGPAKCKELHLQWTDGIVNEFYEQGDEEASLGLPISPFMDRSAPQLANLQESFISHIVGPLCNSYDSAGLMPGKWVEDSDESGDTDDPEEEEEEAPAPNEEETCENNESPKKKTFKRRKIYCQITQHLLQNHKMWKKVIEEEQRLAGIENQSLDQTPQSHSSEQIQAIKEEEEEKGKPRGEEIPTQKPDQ
Chain of Cytochrome P450 2C9 (P11712 whole entry): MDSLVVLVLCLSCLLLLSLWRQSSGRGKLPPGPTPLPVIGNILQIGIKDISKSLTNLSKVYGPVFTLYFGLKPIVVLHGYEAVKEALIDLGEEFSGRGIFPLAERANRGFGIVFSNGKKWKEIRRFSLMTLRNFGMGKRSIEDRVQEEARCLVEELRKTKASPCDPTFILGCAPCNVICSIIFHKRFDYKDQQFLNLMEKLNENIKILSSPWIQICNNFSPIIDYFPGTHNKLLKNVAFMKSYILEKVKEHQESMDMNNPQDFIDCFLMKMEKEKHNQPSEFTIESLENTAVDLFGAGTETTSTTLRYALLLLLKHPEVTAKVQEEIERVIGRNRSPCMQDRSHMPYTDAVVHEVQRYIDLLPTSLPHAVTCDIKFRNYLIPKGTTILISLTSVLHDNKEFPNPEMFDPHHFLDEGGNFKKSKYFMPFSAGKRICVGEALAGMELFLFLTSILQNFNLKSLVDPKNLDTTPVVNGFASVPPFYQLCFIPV
Chain of 3',5'-cyclic-AMP phosphodiesterase 4D (Q08499 whole entry, the tested form may be a part): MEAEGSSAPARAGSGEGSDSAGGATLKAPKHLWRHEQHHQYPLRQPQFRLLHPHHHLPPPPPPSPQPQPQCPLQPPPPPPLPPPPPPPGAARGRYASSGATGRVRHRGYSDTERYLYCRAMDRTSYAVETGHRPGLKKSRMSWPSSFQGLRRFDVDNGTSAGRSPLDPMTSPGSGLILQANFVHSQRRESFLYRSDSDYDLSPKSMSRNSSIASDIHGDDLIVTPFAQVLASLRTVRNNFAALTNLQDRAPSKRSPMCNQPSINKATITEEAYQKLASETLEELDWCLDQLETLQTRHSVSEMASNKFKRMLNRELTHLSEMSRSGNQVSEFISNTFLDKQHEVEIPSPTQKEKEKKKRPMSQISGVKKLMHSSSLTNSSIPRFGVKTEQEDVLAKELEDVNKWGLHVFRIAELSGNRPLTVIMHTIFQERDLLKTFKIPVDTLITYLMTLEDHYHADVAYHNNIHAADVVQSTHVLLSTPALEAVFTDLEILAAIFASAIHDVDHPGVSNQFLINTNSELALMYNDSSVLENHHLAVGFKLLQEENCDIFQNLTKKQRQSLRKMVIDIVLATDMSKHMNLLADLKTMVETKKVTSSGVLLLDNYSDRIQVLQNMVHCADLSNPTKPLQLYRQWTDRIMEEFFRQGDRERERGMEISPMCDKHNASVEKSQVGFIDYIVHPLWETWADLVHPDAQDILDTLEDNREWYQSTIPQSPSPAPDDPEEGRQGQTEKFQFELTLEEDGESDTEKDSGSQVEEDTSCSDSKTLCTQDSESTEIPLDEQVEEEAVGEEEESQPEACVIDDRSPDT

## O=c1c2ccccc2oc2c(Cc3ccc4c(c3)OCO4)[nH]c(-c3nccs3)c12
[1]
  half-life: 6.02 h
[2]
  Tmax: 4 h
[3]
  Cmax: 368 ng/mL
[4]
  Cmax: 2360 ng/mL
[5]
  AUC(0-inf): 2030 ng·h/mL
[6]
  MRT last: 4.76 h
[7]
  bioavailability: 63.4%
[8]
  IC50: > 10 µM
[9]
  IC50: > 10 µM
[10]
  IC50: 2.77 µM
[11]
  IC50: 0.058 µM
[12]
  half-life at 0.5 µM: 0.412 h
[13]
  half-life at 0.5 µM: 0.933 h
Liver [14]
  CLH: 56.1 µL/min/mg
Liver [15]
  CLH: 24.8 µL/min/mg
[16]
  CLint scaled at 0.5 µM: 101 mL/min/kg
[17]
  CLhep predicted at 0.5 µM: 35.6 mL/min/kg
Cytochrome P450 1A2
  IC50: 7.6 µM
Cytochrome P450 2C8
  IC50: > 25 µM
Cytochrome P450 2C9
  IC50: > 25 µM
Cytochrome P450 2D6
  IC50: > 25 µM
[18]
  MTD at 336 h: > 1500 mg/kg
Mus musculus [19]
  Activity: Non-Toxic
Mus musculus [20]
  Activity: Non-Toxic
Mus musculus [21]
  Activity: Non-Toxic
Rattus norvegicus [22]
  Activity: Non-Toxic
Rattus norvegicus [23]
  Activity: Non-Toxic
Rattus norvegicus [24]
  Activity: Active
Rattus norvegicus [25]
  inhibition: Active
Liver [26]
  K: 0.0281
